Read-outs that look alike come from different tables or passages of the source.
How the values were obtained:
[1] = biological target: T1, human FLT3 protein (FLT3 (WT)) (Homo sapiens, UniProt P36888); assay: FLT3 inhibition test (FLT3 enzyme inhibition, time-resolved fluorescence of substrate peptide phosphorylation); type: biochemical; details: read-out: FLT3 (WT) enzyme inhibition activity
T1 construct: human FLT3 protein (intracellular region, 564 to 993 aa); GST; purchased Carna Biosciences; host or cells: baculovirus expression system
T1 sequence (P36888 564-993): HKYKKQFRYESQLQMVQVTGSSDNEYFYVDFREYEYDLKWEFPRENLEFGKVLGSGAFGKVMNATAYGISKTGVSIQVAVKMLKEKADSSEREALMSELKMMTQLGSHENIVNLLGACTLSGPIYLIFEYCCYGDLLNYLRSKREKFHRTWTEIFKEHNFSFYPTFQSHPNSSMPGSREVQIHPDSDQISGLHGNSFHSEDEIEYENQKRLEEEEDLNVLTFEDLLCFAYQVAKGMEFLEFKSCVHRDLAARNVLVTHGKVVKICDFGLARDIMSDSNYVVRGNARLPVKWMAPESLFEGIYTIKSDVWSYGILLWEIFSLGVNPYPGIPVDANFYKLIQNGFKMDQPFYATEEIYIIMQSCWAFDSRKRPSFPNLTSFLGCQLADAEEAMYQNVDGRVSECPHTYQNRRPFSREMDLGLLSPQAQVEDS
Procedure, shortened: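 Substrate peptide phosphorylation detected by time-resolved fluorescence after a 30 min kinase reaction at 25° C with 50 μM ATP (final). Beforehand, compound and FLT3 (WT, 1.2 μg) stood 15 min at 25° C in HEPES buffer pH 7.5 containing MgCl2, NaCl, BSA and DTT.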

MV4-11 cells = assay: Leukemia cell proliferation inhibition test (ATPlite), MV4-11; type: cell-based; details: Homo sapiens, read-out: MV4-11 cell proliferation inhibition effect
Procedure, shortened: (§1)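 Proliferation inhibition is quantified from total cellular ATP, measured by luciferase luminescence, after cells grow with compound for 72 hours. The GI50 is the concentration giving half the signal of the 0.1% DMSO control, fitted to a sigmoid curve from duplicate points.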

Molm-13 cells = assay: Leukemia cell proliferation inhibition test (ATPlite), Molm-13; type: cell-based; details: Homo sapiens, read-out: MOLM13 cell proliferation inhibition effect
Procedure, shortened: as §1

[2] = GST-fused human FLT3 (564 to 993 aa), ATP 50 μM
[3] = MV4-11, 72 h, MV4-11, 72 hours culture, ATPlite, GI50 per method
[4] = MOLM-13, 72 h, Molm-13, 72 hours culture, ATPlite, GI50 per method

| SMILES | IC50 [1, 2] [nM] | IC50 (MV4-11 cells; [3]) [nM] | IC50 (Molm-13 cells; [4]) [nM] | IC50 ([1]; FLT3 (WT)) [nM] | IC50 (MV4-11 cells; MV4-11, MV4-11 cell) [nM] | IC50 (Molm-13 cells; MOLM-13, MOLM13 cell) [nM] |
| --- | --- | --- | --- | --- | --- | --- |
| C[C@@H](C(=O)NCCCC#Cc1cnc(Nc2ccnc(F)c2)nc1N1CCCC1)N(C)C(=O)/C=C/CN(C)C [Compound 9-12, (S,E)-4-(Dimethylamino)-N-(1-((5-(2-((2-fluoropyridin-4-yl)amino)-4-(pyrrolidin-1-yl)pyrimidin-5-yl)-4-pentyn-1-yl)amino)-1-oxopropan-2-yl)-N-methyl-2-butenamide] | < 10 | < 10 | < 10 | – | – | – |
| CCCNc1nc(Nc2ncc(C#N)s2)ncc1C#CCCCNC(=O)[C@H](C)N(C)C(=O)/C=C/CN(C)C [Compound 22-22] | – | – | – | < 10 | < 10 | < 10 |
| C[C@@H](C(=O)NCCCC#Cc1cnc(Nc2ccc(F)nc2)nc1N1CCOCC1)N(C)C(=O)/C=C/CN(C)C [Compound 11-9] | < 10 | 10 to 100 | 10 to 100 | – | – | – |
| CCCNc1nc(Nc2ccc(C(N)=O)cc2)ncc1C(=O)Nc1cccc(NC(=O)[C@H](C)N(C)C(=O)/C=C/CNCC(F)(F)F)c1 [Compound 4-13] | < 10 | 10 to 100 | 10 to 100 | – | – | – |
| CN(C)C/C=C/C(=O)N(C)CC(=O)NCCCC#Cc1cnc(Nc2ccc(F)nc2)nc1NCC(F)(F)F [Compound 10-36] | < 10 | < 10 | < 10 | – | – | – |
| CNc1ncc(C#CCCCNC(=O)[C@H](C)N(C)C(=O)/C=C/CN(C)C)c(Nc2ccc(OC)nc2)n1 [Compound 22-23] | – | – | – | < 10 | < 10 | < 10 |
| CNc1nc(Nc2cccc(F)c2)ncc1C#CCCCNC(=O)[C@@H]1C[C@H](OC)CN1C(=O)/C=C/CN(C)C [Compound 7-73, (2S,4S)-1-((E)-4-(Dimethylamino)-2-butenoyl)-N-(5-(2-((3-fluorophenyl)amino)-4-(methylamino)pyrimidin-5-yl)-4-pentyn-1-yl)-4-methoxypyrrolidine-2-carboxamide] | < 10 | < 10 | < 10 | – | – | – |
| CCCNc1nc(NCCc2ccncc2)ncc1C(=O)NCCC(CC)NC(=O)CN(C)C(=O)/C=C/CN(C)C (stereo not drawn) [Compound 1-12] | < 10 | < 10 | 10 to 100 | – | – | – |
| CNc1nc(Nc2cccc(F)c2)ncc1C#CCCCNC(=O)[C@@H]1CCCN1C(=O)/C=C/CN(C)C [Compound 7-77] | < 10 | < 10 | < 10 | – | – | – |
| CCCNc1nc(Nc2cc(F)c3c(c2)c(N(C)C)nn3C)ncc1C#CCCCNC(=O)[C@H](C)N(C)C(=O)/C=C/CN(C)C [Compound 22-13] | – | – | – | 10 to 100 | 100 to 1000 | 10 to 100 |
| C[C@@H](C(=O)NCCCC#Cc1cnc(Nc2ccnc(F)c2)nc1NCCCF)N(C)C(=O)/C=C/CN(C)C [Compound 9-17] | < 10 | < 10 | < 10 | – | – | – |
| C=CC(=O)NCCC(=O)NCCNC(=O)c1cnc(NCCc2ccncc2)nc1NCCC [Compound 2-19] | 10 to 100 | > 1000 | > 1000 | – | – | – |
| CCCNc1nc(Nc2ccc3c(F)nn(C)c3c2)ncc1C#CCCCNC(=O)[C@@H]1CCCN1C(=O)/C=C/CN(C)C [Compound 22-59] | – | – | – | < 10 | < 10 | < 10 |
| CCCNc1nc(Nc2ccc(C#N)cc2)ncc1/C=C\CNC(=O)CCCNC(=O)/C=C/CN(C)C [Compound 7-96] | 10 to 100 | 100 to 1000 | > 1000 | – | – | – |
| CCCNc1nc(Nc2ccc3c(c2)c(OC)nn3CCOC)ncc1C#CCCCNC(=O)[C@H](C)N(C)C(=O)/C=C/CN(C)C [Compound 22-14] | – | – | – | < 10 | < 10 | < 10 |
| C=CC(=O)NC(C)(C)C(=O)Nc1cccc(NC(=O)c2cnc(NCCc3ccncc3)nc2NCCC)c1 [Compound 2-4] | < 10 | < 10 | 10 to 100 | – | – | – |

More lines, now with the values ahead:

| IC50 [1, 2] [nM] | IC50 (MV4-11 cells; [3]) [nM] | IC50 (Molm-13 cells; [4]) [nM] | IC50 ([1]; FLT3 (WT)) [nM] | IC50 (MV4-11 cells; MV4-11, MV4-11 cell) [nM] | IC50 (Molm-13 cells; MOLM-13, MOLM13 cell) [nM] | SMILES |
| --- | --- | --- | --- | --- | --- | --- |
| < 10 | < 10 | < 10 | – | – | – | C[C@@H](C(=O)NCCCC#Cc1cnc(Nc2ccc3c(cnn3C)c2)nc1NC1CC1)N(C)C(=O)/C=C/CN(C)C [Compound 10-54] |
| 10 to 100 | 10 to 100 | 100 to 1000 | – | – | – | CCCNc1nc(Nc2cccc(F)c2)ncc1C#Cc1cccc(NC(=O)[C@H](C)N(C)C(=O)/C=C/CN(C)C)n1 [Compound 8-20] |
| < 10 | 10 to 100 | < 10 | – | – | – | CCCNc1nc(Nc2cccc(F)c2)ncc1/C=C/c1cccc(NC(=O)[C@H](C)N(C)C(=O)/C=C/CN(C)C)c1 [Compound 7-27] |
| – | – | – | < 10 | 10 to 100 | 10 to 100 | CNc1ncc(C#C[C@@H]2CCC[C@H](NC(=O)[C@H](C)N(C)C(=O)/C=C/CN(C)C)C2)c(NCc2cccc(F)c2)n1 [Compound 21-44] |
| < 10 | 10 to 100 | 10 to 100 | – | – | – | C[C@@H](C(=O)Nc1cccc(C#Cc2cnc(Nc3ccc(C#N)cc3)nc2NC2CC2)n1)N(C)C(=O)/C=C/CN(C)C [Compound 8-18] |
| < 10 | < 10 | < 10 | – | – | – | CCCNc1nc(Nc2cccc(F)c2)ncc1C#C[C@H]1C[C@@H](NC(=O)[C@H](C)N(C)C(=O)/C=C/CN(C)C)C1 [Compound 13-8, (E)-4-(Dimethylamino)-N—((S)-1-(((1S,3R)-3-((2-((3-fluorophenyl)amino)-4-(propylamino)pyrimidin-5-yl)ethynyl)cyclobutyl)amino)-1-oxopropan-2-yl)-N-methyl-2-butenamide] |
| < 10 | < 10 | < 10 | – | – | – | CCCN(C)c1nc(Nc2ccc(C(=O)NC)cc2)ncc1C#CCCCNC(=O)[C@H](C)N(C)C(=O)/C=C/CN(C)C [Compound 9-9] |
| < 10 | < 10 | < 10 | – | – | – | C[C@@H](C(=O)N[C@H]1C[C@@H](C#Cc2cnc(Nc3ccc(F)cc3)nc2NC2CC2)C1)N(C)C(=O)/C=C/CN(C)C (relative stereo) [Compound 15-9, (E)-N—((S)-1-(((1S*,3R*)-3-((4-(Cyclopropylamino)-2-((4-fluorophenyl)amino)pyrimidin-5-yl)ethynyl)cyclobutyl)amino)-1-oxopropan-2-yl)-4-(dimethylamino)-N-methyl-2-butenamide] |
| < 10 | < 10 | < 10 | – | – | – | CCCNc1nc(Nc2cccc(OC(F)F)c2)ncc1C#CCCCNC(=O)[C@H](C)N(C)C(=O)/C=C/CN(C)C [Compound 9-28] |
| < 10 | < 10 | < 10 | – | – | – | CNc1nc(Nc2ccc(F)cc2)ncc1C#C[C@H]1C[C@@H](NC(=O)[C@H](C)N(C)C(=O)/C=C/CN(C)C)C1 [Compound 13-19, (E)-4-(Dimethylamino)-N—((S)-1-(((1S,3R)-3-((2-((4-fluorophenyl)amino)-4-(methylamino)pyrimidin-5-yl)ethynyl)cyclobutyl)amino)-1-oxopropan-2-yl)-N-methyl-2-butenamide] |
| < 10 | < 10 | 10 to 100 | – | – | – | COCCCNc1nc(Nc2ccc(F)cc2)ncc1C#CCCCNC(=O)[C@H](C)N(C)C(=O)/C=C/CN(C)C [Compound 10-26] |
| – | – | – | < 10 | < 10 | < 10 | CC(C)Nc1nc(Nc2cccc(F)c2)ncc1C#C[C@@H]1CCC[C@H](NC(=O)[C@H](C)N(C)C(=O)/C=C/CN(C)C)C1 [Compound 21-30] |
| – | – | – | 10 to 100 | 10 to 100 | 10 to 100 | CCCNc1nc(Nc2ccc(-n3nccn3)cc2)ncc1C#CCCCNC(=O)[C@H](C)N(C)C(=O)/C=C/CN(C)C [Compound 22-16] |
